Source: patent publication US20250092383A1, “COMPOUNDS AND METHODS FOR FBXO22-MEDIATED PROTEIN DEGRADATION” (Northwestern University, priority 2023, published 2025)
Blank lines part the entries; values can stand above or below the compound they belong to. Peptide text beside a SMILES is read from it. * marks the point of attachment. Cbz = O=C(OCc1ccccc1)*

Columns and labels:
Format in all cases: cell-based
FKBP12 (mouse FBXO22) = biological target: T1, FKBP12 (mouse FBXO22) (UniProt P62942+Q78JE5); assay: FKBP12 degradation in HEK293T cells expressing mouse FBXO22; settings: HEK293T cells expressing mouse FBXO22 wildtype
T1 construct: expressed in transfected cells; host or cells: HEK293T
From the text: (§1) FIGS. 3A-3H show FBXO22 C227 and C228 are involved in 22-SLF-mediated degradation of FKBP12. […] Among 5,650 quantified IA-DTB-modified peptides, four cysteines were identified on FBXO22 (C83, C117, C228, and C365). […] Data are presented as the mean values (n=2 biological independent samples for DMSO treatment; n=3 biological independent samples for 22-SLF Treatment). […] The bag graph represents quantification of the FLAG-FKBP12/HSP90 protein content. Data are presented as mean values (n=2 biological independent samples). […] The bar graph represents quantification of the FLAG-FKBP12/HSP90 protein content. Data are presented as the mean values (n=2 biological independent samples).
Intriguingly, the peptide sequence containing the two consecutive cysteines (C227 and C228) is identical between human and mouse (FIG. 3f). To explore whether mouse FBXO22 can facilitate 22-SLF-induced FKBP12 degradation and if the conserved cysteines (C226 and C227 in mouse FBXO22) are pivotal, HEK293T cells expressing mouse FBXO22 wildtype, C226A, C227A, and C226AC227A, were generated.

FKBP12 = FKBP12 (Homo sapiens, UniProt P62942); assay: Western blot of FLAG-FKBP12 degradation in HEK293T cells expressing HA-FBXO22; design: expressed in transfected cells; host or cells: HEK293T; settings: MG132 (1 μM), MLN4924 (1 μM), SLF (25 μM)
Procedure: The bar graph represents quantification of the FLAG-FKBP12/HSP90 protein content. Data are presented as the mean values±s.e.m. […] HEK293T cells expressing HA-FBXO22 were treated with 0.025-15 μM 22-SLF for 8 h. The graph represents quantification of the FLAG-FKBP12/HSP90 protein content. Data are presented as the mean values (n=2 biological independent samples). […] The bar graph represents quantification of the FLAG-FKBP12/HSP90 protein content. KO, knockout; WT, wild type. Data are presented as the mean values (n=2 biological independent samples). […] The bar graph represents quantification of the FLAG-FKBP12/HSP90 protein content. Data are presented as the mean values±s.e.m. […] The result is representative of two independent experiments with similar results. WCL, whole-cell lysate; IP, immunoprecipitate.
as §1
FIG. 11A-11B show the acrylamide variant of 22-SLF, 22a-SLF, induced the degradation of FKBP12. […] HEK293T cells expressing HA-FBXO22 were treated with 0.5, 1, or 2 μM of 22-SLF or 22a-SLF for 8 hours. The graph represents quantification of the FLAG-FKBP12/HSP90 protein content. Data are presented as mean values (n=2 biological independent samples).
Next, Western blot analysis was used to measure the degradation of FKBP12 induced by 22-SLF. To achieve this, FLAG-tagged FKBP12 and HA-tagged FBXO22 were stably overexpressed in HEK293T cells, followed by subjecting the cells to varying concentrations of 22-SLF. […] Moreover, 22-SLF's effect on FLAG-FKBP12 degradation was concentration-dependent (FIG. 2a). […] The rescue enabled by MLN4924 indicates the involvement of a Cullin-RING ligase (CRL) in the degradation process. This is consistent with FBXO22 belonging to SKP1-CUL1-F-box protein (SCF) ubiquitin ligase complexes, a subfamily of CRL. […] To provide a more comprehensive insight into 22-SLF-induced FKBP12 degradation, a dose-dependent degradation experiment using 11 concentrations of 22-SLF ranging from […] to 15 μM was conducted. This experiment enabled determination of two parameters, the Dmax value, which reached 89%, and the half-maximal degradation concentration (DC50) value, which measured at 0.5 μM (FIG. 2B). […] Collectively, this array of data supports the canonical mechanism of ligand-induced protein degradation. In this mechanism, 22-SLF orchestrates the recruitment of FBXO22 to FKBP12, culminating in the proteasomal degradation of FKBP12.
To identify the cysteine residue(s) in FBXO22 engaged with 22-SLF, HA-FBXO22-expressing HEK293T cells were treated with either DMSO or 22-SLF (2 μM, 2 hours). Using competitive cysteine-directed activity-based protein profiling (ABPP), a chemical proteomics for the measurement of target engagement, the degree of blockade of iodoacetamide-desthiobiotin (IA-DTB)-modified cysteines on FBXO22 was quantified. From a pool of 5,650 quantified IA-DTB-modified peptides, four cysteines on FBXO22 (C83, C117, C228, and C365) (FIG. 3a) were identified, with approximately 20% of FBXO22 C228 being blocked by 22-SLF treatment (FIG. 3b), indicating the potential interaction with this cysteine by 22-SLF. Consequently, C228 was mutated to alanine and HA-FBXO22 C228A-expressing HEK293T cells were generated (FIG. 3c). […]

EML4-ALK fusion protein = biological target: T2, EML4-ALK fusion protein (Homo sapiens, UniProt Q8NEZ5+Q9HC35+Q9UM73); assay: EML4-ALK degradation in H2228 wild-type and FBXO22-knockout cells; settings: 1 and 2 μM, 24 h
T2 construct: endogenous in cells; host or cells: H2228 wild type and FBXO22 knockout
From the text: (§2) FIGS. 5A-5E show harnessing FBXO22 for the degradation of BRD4 and EML4-ALK. […] The bar graph represents quantification of the BRD4/β-actin protein content. Data are presented as the mean values (n=2 biological independent samples). […] Data are presented as the mean values (n=2 biological independent samples). […] The bar graph represents quantification of the EML4-ALK/β-actin protein content. Data are presented as the mean values (n=2 biological independent samples).
(§3) Next, the potential of FBXO22 to facilitate the degradation of additional proteins was investigated. Bromodomain-containing protein 4 (BRD4) was chosen due to its notable physiological role and the availability of a selective ligand, JQ1. The compound, 22-JQ1 (3) was synthesized by coupling the FBXO22 binding moiety to JQ1 (FIG. 5a). […] Subsequently, a global proteomic analysis was performed in A549 wild-type and FBXO22-knockout cells treated with 22-JQ1. […] 22-TAE incorporates the FBXO22 binding moiety coupled with a defined anaplastic lymphoma kinase (ALK) ligand (FIG. 5d). FBXO22 knockout was generated in H2228, a non-small cell lung cancer cell line expressing the echinoderm microtubule-associated protein-like 4 (EML4)-ALK fusion protein.

BRD4 [1] = biological target: T3, BRD4 (Homo sapiens, UniProt O60885); assay: BRD4 degradation in A549 wild-type and FBXO22-knockout cells (western blot); settings: 1 and 2 μM, 24 h
T3 construct: endogenous in cells; host or cells: A549 wild type and FBXO22 knockout
From the text: as §2, §3

BRD4 [2] = biological target: T3, BRD4; assay: Global proteomic analysis in A549 wild-type and FBXO22-knockout cells treated with 22-JQ1; settings: 2 μM, 24 h
From the text: as §2, §3

Sequence of FKBP12 (P62942 whole entry): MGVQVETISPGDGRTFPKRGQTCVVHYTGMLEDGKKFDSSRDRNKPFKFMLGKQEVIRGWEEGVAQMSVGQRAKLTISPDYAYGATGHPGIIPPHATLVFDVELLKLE
T2 sequence (Q9HC35+Q9UM73 fused): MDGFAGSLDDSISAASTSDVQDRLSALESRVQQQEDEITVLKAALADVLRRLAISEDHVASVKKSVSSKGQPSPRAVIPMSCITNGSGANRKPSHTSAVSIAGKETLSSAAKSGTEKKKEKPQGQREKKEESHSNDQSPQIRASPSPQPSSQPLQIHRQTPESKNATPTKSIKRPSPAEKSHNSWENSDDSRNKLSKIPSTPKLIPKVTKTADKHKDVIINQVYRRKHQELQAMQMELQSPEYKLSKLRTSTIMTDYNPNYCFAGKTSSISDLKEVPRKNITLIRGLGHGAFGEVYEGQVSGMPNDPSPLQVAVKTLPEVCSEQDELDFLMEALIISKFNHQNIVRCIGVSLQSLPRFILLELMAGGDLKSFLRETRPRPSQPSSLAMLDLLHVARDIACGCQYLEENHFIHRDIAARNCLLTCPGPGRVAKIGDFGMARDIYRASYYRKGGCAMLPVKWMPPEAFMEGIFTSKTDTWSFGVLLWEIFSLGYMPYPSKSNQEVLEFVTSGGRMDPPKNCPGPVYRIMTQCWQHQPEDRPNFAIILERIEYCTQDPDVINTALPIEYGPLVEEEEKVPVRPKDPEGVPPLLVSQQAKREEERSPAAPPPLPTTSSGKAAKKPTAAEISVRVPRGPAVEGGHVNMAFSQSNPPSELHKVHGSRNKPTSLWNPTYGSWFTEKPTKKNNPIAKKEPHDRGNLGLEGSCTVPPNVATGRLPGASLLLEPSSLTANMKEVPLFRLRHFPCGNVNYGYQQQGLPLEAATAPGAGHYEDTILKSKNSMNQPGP
T2 sequence (Q8NEZ5 whole entry, the tested form may be a part): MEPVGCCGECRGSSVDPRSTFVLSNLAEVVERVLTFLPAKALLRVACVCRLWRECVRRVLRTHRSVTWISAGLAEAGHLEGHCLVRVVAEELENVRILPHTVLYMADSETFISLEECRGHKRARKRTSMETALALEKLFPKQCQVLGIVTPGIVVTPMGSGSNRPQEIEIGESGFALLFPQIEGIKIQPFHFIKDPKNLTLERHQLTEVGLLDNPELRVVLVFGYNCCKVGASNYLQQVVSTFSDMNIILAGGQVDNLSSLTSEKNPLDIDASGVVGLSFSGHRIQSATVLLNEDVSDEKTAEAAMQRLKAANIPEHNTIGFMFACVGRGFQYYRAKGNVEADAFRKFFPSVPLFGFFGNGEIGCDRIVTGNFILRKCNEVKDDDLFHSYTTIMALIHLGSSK
T2 sequence (P63208 2-163 partner limits assumed): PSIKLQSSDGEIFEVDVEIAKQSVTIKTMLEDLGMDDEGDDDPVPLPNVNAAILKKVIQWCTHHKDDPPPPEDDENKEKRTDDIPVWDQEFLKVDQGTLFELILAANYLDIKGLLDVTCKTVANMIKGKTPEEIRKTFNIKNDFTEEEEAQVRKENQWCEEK
T2 sequence (Q13616 whole entry partner, the tested form may be a part): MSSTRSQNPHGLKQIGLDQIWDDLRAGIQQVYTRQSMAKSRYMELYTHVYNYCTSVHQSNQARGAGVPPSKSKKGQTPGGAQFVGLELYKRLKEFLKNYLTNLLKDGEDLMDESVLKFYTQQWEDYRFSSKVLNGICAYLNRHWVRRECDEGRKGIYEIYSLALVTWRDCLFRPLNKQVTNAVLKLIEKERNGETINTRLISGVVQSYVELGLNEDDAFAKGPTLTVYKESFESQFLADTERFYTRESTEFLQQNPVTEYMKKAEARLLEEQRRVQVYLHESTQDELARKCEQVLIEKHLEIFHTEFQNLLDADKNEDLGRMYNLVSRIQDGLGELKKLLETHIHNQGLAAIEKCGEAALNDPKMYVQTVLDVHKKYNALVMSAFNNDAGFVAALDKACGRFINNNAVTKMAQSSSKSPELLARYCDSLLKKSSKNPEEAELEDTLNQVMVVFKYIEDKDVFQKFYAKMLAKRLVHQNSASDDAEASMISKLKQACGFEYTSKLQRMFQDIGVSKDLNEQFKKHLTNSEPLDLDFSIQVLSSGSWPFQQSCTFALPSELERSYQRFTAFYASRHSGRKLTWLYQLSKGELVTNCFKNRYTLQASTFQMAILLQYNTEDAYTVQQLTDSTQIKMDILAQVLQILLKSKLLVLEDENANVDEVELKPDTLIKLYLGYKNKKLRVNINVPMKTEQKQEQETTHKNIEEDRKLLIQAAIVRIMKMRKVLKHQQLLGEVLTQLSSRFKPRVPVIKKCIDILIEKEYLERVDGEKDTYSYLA
T2 sequence (P62877 whole entry partner, the tested form may be a part): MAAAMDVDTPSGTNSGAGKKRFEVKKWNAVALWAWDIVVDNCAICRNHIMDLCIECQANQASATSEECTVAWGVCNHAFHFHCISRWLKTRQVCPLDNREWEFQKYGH
T1 sequence (P62942 2-108): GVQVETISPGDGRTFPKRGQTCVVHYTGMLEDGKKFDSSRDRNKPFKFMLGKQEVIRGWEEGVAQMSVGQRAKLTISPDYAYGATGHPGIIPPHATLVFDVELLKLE
T1 sequence (Q78JE5 whole entry): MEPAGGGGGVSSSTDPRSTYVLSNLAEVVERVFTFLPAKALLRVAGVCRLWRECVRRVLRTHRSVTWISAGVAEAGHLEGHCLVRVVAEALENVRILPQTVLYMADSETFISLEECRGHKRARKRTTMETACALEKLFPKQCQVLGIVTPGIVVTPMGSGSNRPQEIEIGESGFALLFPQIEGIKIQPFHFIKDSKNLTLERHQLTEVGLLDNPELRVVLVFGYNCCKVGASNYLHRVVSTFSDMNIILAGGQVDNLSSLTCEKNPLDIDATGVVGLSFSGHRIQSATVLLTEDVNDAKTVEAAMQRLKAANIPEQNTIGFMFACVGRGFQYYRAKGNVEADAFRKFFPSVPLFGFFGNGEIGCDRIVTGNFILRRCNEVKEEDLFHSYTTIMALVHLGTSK
T1 sequence (P63208 whole entry partner): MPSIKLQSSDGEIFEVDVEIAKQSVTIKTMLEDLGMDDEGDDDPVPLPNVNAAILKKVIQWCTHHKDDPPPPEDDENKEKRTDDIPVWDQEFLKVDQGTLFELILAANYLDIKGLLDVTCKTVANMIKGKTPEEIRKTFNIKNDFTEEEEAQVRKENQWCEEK

Structure (SMILES): CC(C)C[C@@H](C=O)NC(=O)[C@H](CC(C)C)NC(=O)[C@H](CC(C)C)NC(=O)OCc1ccccc1 [MG132, reference compound] (Cbz-Leu-Leu-Leu-aldehyde)
- Blockade of 22-SLF-induced FKBP12 degradation, mouse FBXO22 (FKBP12 (mouse FBXO22)): blocked
- Blockade of 22-SLF-induced loss of FLAG-FKBP12 expression (FKBP12): blocked

- EML4-ALK degradation, FBXO22-knockout H2228 cells (EML4-ALK fusion protein): no such degradation was observed
Structure (SMILES): COc1cc(N2CCN(CCOCCOCCN(C(=O)CCl)C(C(=O)NCc3ccccc3)c3nc4ccccc4s3)CC2)ccc1Nc1ncc(Cl)c(Nc2ccccc2S(=O)(=O)C(C)C)n1 (stereo not drawn) [22-TAE]
- EML4-ALK degradation, H2228 wild-type cells (EML4-ALK fusion protein): induced the degradation of EML4-ALK fusion protein

- BRD4 degradation, A549 FBXO22 knockout cells (BRD4 [1]): abolished upon FBXO22 knockout
- BRD4 degradation, A549 wild-type cells (BRD4 [1]): promoted the degradation of BRD4
Structure (SMILES): Cc1sc2c(c1C)C(c1ccc(Cl)cc1)=N[C@@H](CC(=O)NCCCOCCOCCOCCCN(C(=O)CCl)C(C(=O)NCc1ccccc1)c1nc3ccccc3s1)c1nnc(C)n1-2 (stereo partly drawn) [22-JQ1]
- BRD4 degradation in global proteomics (BRD4 [2]): potent degradation of BRD4 in A549 wild-type but not FBXO22-knockout cells

- Blockade of 22-SLF-induced FKBP12 degradation, mouse FBXO22 (FKBP12 (mouse FBXO22)): blocked
- Blockade of 22-SLF-induced loss of FLAG-FKBP12 expression (FKBP12): blocked
Structure (SMILES): NS(=O)(=O)OC[C@@H]1C[C@@H](n2ccc3c(N[C@H]4CCc5ccccc54)ncnc32)C[C@@H]1O [MLN4924, reference compound]
